Data from patent US6277859A, “Morphinan derivative and its pharmaceutical applications” (priority 1992, dated 2001).
Structures can show the parent of a compound that is named as a salt.

Legend:
[1] = target: T1, μ receptor (Mus musculus, UniProt P42866); assay: Ke with naloxone in isolated mouse vas deference preparation; type: cell-based, mouse (male ddy)
T1 construct: The isolated vas deference was filled with Krebes-Henseleit solution; from tissue; host or cells: isolated vas deferens of male ddy mouse
T1 sequence (P42866 whole entry): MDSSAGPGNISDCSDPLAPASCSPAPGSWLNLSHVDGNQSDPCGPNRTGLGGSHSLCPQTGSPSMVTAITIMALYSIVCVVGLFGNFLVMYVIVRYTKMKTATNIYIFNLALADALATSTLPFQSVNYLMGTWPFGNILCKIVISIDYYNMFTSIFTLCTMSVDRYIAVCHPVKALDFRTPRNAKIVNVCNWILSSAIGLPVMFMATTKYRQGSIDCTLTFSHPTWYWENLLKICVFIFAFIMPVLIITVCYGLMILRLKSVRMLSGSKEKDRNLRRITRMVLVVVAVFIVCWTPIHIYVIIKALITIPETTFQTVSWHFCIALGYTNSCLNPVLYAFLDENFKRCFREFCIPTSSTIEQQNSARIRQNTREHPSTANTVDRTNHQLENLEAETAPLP
Procedure: (§1) A male ddy mouse was used in this test. The isolated vas deference was filled with Krebes-Henseleit solution (NaCl 118 mM; KCl 4.7 mM; CaCl2 2.5 mM; KH2 PO4 1.1 mM; NaHCO3 25 mM; and glucose 10 mM) warmed to 37° C. and suspended in a Magnus tube ventilated with 5% carbon dioxide and 95% oxygen. Electrical stimulus was performed at 0.1 Hz for 5.0 ms by means of ring-shaped platinum electrodes located above and below. Tissue contractions were recorded on a polygraph using an isometric transducer.
(§2) Then after adequately washing with nutrient solution and the contraction reaction stabilized, naloxone, a μ […], NTI, a δ […], or norBNI, a κ […], were added and the test compound was again cumulatively added after roughly 20 minutes. The Ke value was calculated using the following calculation formula from the difference in the efficacies of both agonists.
(§3) Ke=[Conc. of added agonist]/(IC50 ratio-1)
(§4) IC50 ratio IC50 in the presence of agonist/IC50 in the absence of agonist

[2] = target: T2, δ receptor (Mus musculus, UniProt P32300); assay: Ke with NTI in isolated mouse vas deference preparation; type: cell-based, mouse (male ddy); details: for Ke NTI: NTI (δ)
T2 construct: The isolated vas deference was filled with Krebes-Henseleit solution; from tissue; host or cells: isolated vas deferens of male ddy mouse
T2 sequence (P32300 whole entry): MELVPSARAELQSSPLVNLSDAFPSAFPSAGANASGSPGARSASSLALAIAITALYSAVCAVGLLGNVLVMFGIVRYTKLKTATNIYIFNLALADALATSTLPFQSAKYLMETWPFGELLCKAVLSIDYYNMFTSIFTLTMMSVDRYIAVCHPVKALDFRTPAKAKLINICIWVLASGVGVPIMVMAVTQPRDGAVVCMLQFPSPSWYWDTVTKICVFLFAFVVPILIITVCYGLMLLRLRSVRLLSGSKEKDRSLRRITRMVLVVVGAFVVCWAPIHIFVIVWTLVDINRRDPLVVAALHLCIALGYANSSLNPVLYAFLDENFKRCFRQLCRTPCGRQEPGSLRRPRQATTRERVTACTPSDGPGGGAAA
Procedure: as §1, §2, §3, §4

[3] = target: T3, κ receptor (Mus musculus, UniProt P33534); assay: Ke with norBNI in isolated mouse vas deference preparation; type: cell-based, mouse (male ddy); details: for Ke norBNI: norBNI (κ)
T3 construct: The isolated vas deference was filled with Krebes-Henseleit solution; from tissue; host or cells: isolated vas deferens of male ddy mouse
T3 sequence (P33534 whole entry): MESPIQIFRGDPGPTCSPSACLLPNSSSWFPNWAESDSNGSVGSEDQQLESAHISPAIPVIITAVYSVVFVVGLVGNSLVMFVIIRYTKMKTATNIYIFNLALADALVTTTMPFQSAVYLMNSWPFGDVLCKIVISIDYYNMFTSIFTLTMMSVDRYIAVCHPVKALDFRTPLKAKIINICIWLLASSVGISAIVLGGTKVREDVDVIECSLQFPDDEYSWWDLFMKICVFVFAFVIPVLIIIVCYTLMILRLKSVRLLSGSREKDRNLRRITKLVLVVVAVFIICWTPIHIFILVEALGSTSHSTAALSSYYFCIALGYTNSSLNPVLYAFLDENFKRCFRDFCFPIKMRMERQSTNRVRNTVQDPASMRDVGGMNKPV
Procedure: as §1, §2, §3, §4

[4] = system: Wistar rats; assay: Evaluation of diuretic action; type: in vivo, rat (male Wistar); details: sc, rat, s.c., urine output for 5 h after 20 ml/kg saline oral; for ED500: read-out: ED500, diuretic action (dose giving urine output of 500, non-dosed group = 100); for ED200: read-out: ED200, diuretic action (dose giving urine output of 200, non-dosed group = 100)
Procedure: Evaluation of Diuretic Action
7-8 week old male Wistar rats were used in this test after prohibiting from drinking water for 1 hour before testing. After discharging any urine accumulated in the bladder by gently stimulating the lower abdomens of the animals, the drug was administered subcutaneously. After 30 minutes, the animals were then forcibly given 20 ml/kg of physiological saline orally. The animals were then placed in metabolic cages immediately after administration of the drug (2 animals/cage) and urine output for 5 hours after loading with physiological saline was measured. Drug efficacy was expressed in the form of those doses resulting in urine outputs of 200 and 500, respectively, when the urine output of a non-dosed group was taken to be 100. Those doses were expressed as the ED200 and ED500 values, respectively.

[5] = system: isolated mouse vas deference; assay: Opioid activity test using the isolated mouse vas deference preparation (electrically stimulated contractions); type: cell-based, mouse (male ddy); details: suppression of electrically stimulated contractions
Procedure: Opioid Activity Test Using the Isolated Mouse Vas Deference Preparation
as §1, §2

SMILES: CN(C(=O)/C=C/c1ccccc1)[C@H]1CC[C@@]2(O)[C@H]3Cc4ccc(O)c5c4[C@@]2(CCN3CC2CC2)[C@H]1O5 [Compound 24, 17-cyclopropylmethyl-3,14β-dihydroxy-4,5α-epoxy-6α-(N-methylcinnamamido)morphinan.hydrochloride]
- Ke Naloxone [1]: 16.5 nM
- selective agonist for δ receptors (in words) [2]: selective agonists for δ receptors
- Ke NTI [2]: 0.426 nM
- Ke norBNI [3]: 4.90 nM
- ED500 [4]: 6.3 µg/kg
- ED200 [4]: 0.69 µg/kg

SMILES: CN(C(=O)COc1ccccc1)[C@H]1CC[C@@]2(O)[C@H]3Cc4ccc(O)c5c4[C@@]2(CCN3CC2CC2)[C@H]1O5 [Compound 38, 17-cyclopropylmethyl-3,14β-dihydroxy-4,5α-epoxy-6α-(N-methylphenoxyacetamido) morphinan.hydrochloride]
- Ke Naloxone [1]: 411 nM
- Ke NTI [2]: 16.6 nM
- selective agonist for κ receptors (in words) [3]: selective agonists for κ receptors
- Ke norBNI [3]: 4.65 nM
- ED200 [4]: 3.8 µg/kg

SMILES: CN(C(=O)OCc1ccc([N+](=O)[O-])cc1)[C@H]1CC[C@@]2(O)[C@H]3Cc4ccc(O)c5c4[C@@]2(CCN3CC2CC2)[C@H]1O5 [Compound 43, 17-cyclopropylmethyl-3,14β-dihydroxy-4,5α-epoxy-6α-(N-methyl-4-nitrobenzyloxycarbamido)morphinan.hydrochloride]
- Ke Naloxone [1]: 409 nM
- Ke NTI [2]: 22.5 nM
- selective agonist for κ receptors (in words) [3]: selective agonists for κ receptors
- Ke norBNI [3]: 5.31 nM
- ED500 [4]: 4.4 µg/kg
- ED200 [4]: 0.54 µg/kg

SMILES: CN(C(=O)/C=C/c1ccoc1)[C@@H]1CC[C@@]2(O)[C@H]3Cc4ccc(O)c5c4[C@@]2(CCN3CC2CC2)[C@H]1O5 [Compound 61, 17-cyclopropylmethyl-3,14β-dihydroxy-4,5α-epoxy-6β-[N-methyl-trans-3-(3-furyl)acrylamido]morphinan.tartrate]
- IC50 [5]: 0.42 nM
- Ke norBNI [3]: 0.164 nM
- ED200 [4]: 3.2 µg/kg

SMILES: CN(C(=O)C#Cc1ccccc1)[C@H]1CC[C@@]2(O)[C@H]3Cc4ccc(O)c5c4[C@@]2(CCN3CC2CC2)[C@H]1O5 [Compound 84, 17-cyclopropylmethyl-3,14β-dihydroxy-4,5α-epoxy-6α-(N-methyl-3-phenylpropiolamido)morphinan.hydrochloride]
- Ke Naloxone [1]: 35.4 nM
- selective agonist for δ receptors (in words) [2]: selective agonists for δ receptors
- Ke NTI [2]: 0.309 nM
- Ke norBNI [3]: 5.69 nM
- ED200 [4]: 2.8 µg/kg

SMILES: CN(C(=O)/C=C/c1ccco1)[C@@H]1CC[C@@]2(O)[C@H]3Cc4ccc(O)c5c4[C@@]2(CCN3CC2CC2)[C@H]1O5 [Compound 70, 17-cyclopropylmethyl-3,14β-dihydroxy-4,5α-epoxy-62. [N-methyl-trans-3-(2-furyl)acrylamido] morphinan.hydrochloride]
- IC50 [5]: 0.545 nM
- selective agonist for κ receptors (in words) [3]: selective agonists for κ receptors
- Ke norBNI [3]: 0.198 nM

SMILES: CN(C(=O)/C=C/c1ccoc1)[C@H]1CC[C@@]2(O)[C@H]3Cc4ccc(O)c5c4[C@@]2(CCN3CC2CC2)[C@H]1O5 [Compound 89, 17-cyclopropylmethyl-3,14β-dihydroxy-4,5α-epoxy-6α-[N-methyl-trans-3-(3-furyl)acrylamido]morphinane.tartrate]
- Ke Naloxone [1]: 18.3 nM
- Ke NTI [2]: 15.6 nM
- selective agonist for κ receptors (in words) [3]: selective agonists for κ receptors
- Ke norBNI [3]: 0.85 nM
- ED200 [4]: 1.2 µg/kg

SMILES: CN(C(=O)/C=C/c1cccc(C(F)(F)F)c1)[C@@H]1CC[C@@]2(O)[C@H]3Cc4ccc(O)c5c4[C@@]2(CCN3CC2CC2)[C@H]1O5 [Compound 60, 17-cyclopropylmethyl-3,14β-dihydroxy-4,5α-epoxy-60-(N-methyl-3-trifluoromethylcinnaiamido)morphinan.tartrate]
- IC50 [5]: 0.468 nM
- Ke NTI [2]: 291 nM
- selective agonist for κ receptors (in words) [3]: selective agonists for κ receptors
- Ke norBNI [3]: 3.20 nM

SMILES: CCC/C=C/C(=O)N(C)[C@@H]1CC[C@@]2(O)[C@H]3Cc4ccc(O)c5c4[C@@]2(CCN3CC2CC2)[C@H]1O5 [Compound 100, 17-cyclopropylmethyl-3,14β-dihydroxy-4,5α-epoxy-6β-(N-methyl-trans-2-hexenamido)morphinan.tartrate]
- IC50 [5]: 0.647 nM
- Ke Naloxone [1]: 1797 nM
- selective agonist for κ receptors (in words) [3]: selective agonists for κ receptors
- Ke norBNI [3]: 0.0717 nM

SMILES: CN(C(=O)/C=C/c1cccc(F)c1)[C@@H]1CC[C@@]2(O)[C@H]3Cc4ccc(O)c5c4[C@@]2(CCN3CC2CC2)[C@H]1O5 [Compound 102, 17-cyclopropylmethyl-3,14β-dihydroxy-4,5α-epoxy-6β-(N-methyl-3-fluorocinnamamido)morphinan.tartrate]
- IC50 [5]: 1.6 nM
- Ke NTI [2]: 276 nM
- selective agonist for κ receptors (in words) [3]: selective agonists for κ receptors
- Ke norBNI [3]: 2.37 nM
- ED200 [4]: 1.4 µg/kg

SMILES: CN(C(=O)C#Cc1ccccc1)[C@@H]1CC[C@@]2(O)[C@H]3Cc4ccc(O)c5c4[C@@]2(CCN3CC2CC2)[C@H]1O5 [Compound 101, 17-cyclopropylmethyl-3,14β-dihydroxy-4,5α-epoxy-6β-(N-methyl-3-phenylpropiolamido)morphinan.hydrochloride]
- Ke Naloxone [1]: 25.4 nM
- Ke NTI [2]: 31.6 nM
- selective agonist for κ receptors (in words) [3]: selective agonists for κ receptors
- Ke norBNI [3]: 0.0425 nM
- ED200 [4]: 8.9 µg/kg

SMILES: CN(C(=O)CCc1ccccc1)[C@H]1CC[C@@]2(O)[C@H]3Cc4ccc(O)c5c4[C@@]2(CCN3CC2CC2)[C@H]1O5 [Compound 22, 17-Cyclopropylmethyl-4,5α-epoxy-3,14β-dihydroxy-6α-(N-methyl-3-phenylpropionamido)morphinan.tartrate]
- Ke Naloxone [1]: 800 nM
- Ke NTI [2]: 545 nM
- selective agonist for κ receptors (in words) [3]: selective agonists for κ receptors
- Ke norBNI [3]: 5.53 nM
- ED500 [4]: 17 µg/kg
- ED200 [4]: 0.95 µg/kg

SMILES: Cc1cccc(/C=C/C(=O)N(C)[C@@H]2CC[C@@]3(O)[C@H]4Cc5ccc(O)c6c5[C@@]3(CCN4CC3CC3)[C@H]2O6)c1 [Compound 69, 17-cyclopropylmethyl-3,14β-dihydroxy-4,5α-epoxy-6β-(N-methyl-3-methylcinnamamido)morphinan.hydrochloride]
- IC50 [5]: 0.32 nM
- Ke Naloxone [1]: 1780 nM
- Ke NTI [2]: 64.5 nM
- selective agonist for κ receptors (in words) [3]: selective agonists for κ receptors
- Ke norBNI [3]: 1.95 nM

SMILES: CCCCCC(=O)N(C)[C@H]1CC[C@@]2(O)[C@H]3Cc4ccc(O)c5c4[C@@]2(CCN3CC2CC2)[C@H]1O5 [Compound 39, 17-cyclopropylmethyl-3,14β-dihydroxy-4,5α-epoxy-6α-(N-methylhexanamido)morphinan.tartrate]
- Ke Naloxone [1]: 89.9 nM
- Ke NTI [2]: 99.3 nM
- selective agonist for κ receptors (in words) [3]: selective agonists for κ receptors
- Ke norBNI [3]: 1.01 nM
- ED200 [4]: 4.1 µg/kg

SMILES: CN(C(=O)/C=C/c1cccc([N+](=O)[O-])c1)[C@H]1CC[C@@]2(O)[C@H]3Cc4ccc(O)c5c4[C@@]2(CCN3CC2CC2)[C@H]1O5 [Compound 97, 17-cyclopropylmethyl-3,14β-dihydroxy-4,5α-epoxy-6α-(N-methyl-3-nitrocinnamamido)morphinanphosphate]
- Ke Naloxone [1]: 163 nM
- selective agonist for δ receptors (in words) [2]: selective agonists for δ receptors
- Ke NTI [2]: 2.92 nM
- Ke norBNI [3]: 13.9 nM
- ED200 [4]: 4.5 µg/kg
